Experimental data taken from PubChem BioAssay AID192 (DTP/NCI, 2004).
“And” between values parts separate entries of the source, which are not always exact repeats. Identical values can stand only once. Inconclusive results and toxic doses are left out.

Test system: BDF1 mice, B16 melanoma ip, median survival T/C
Test: NCI In Vivo Anticancer Drug Screen. Data for tumor model B16 Melanoma (intraperitoneal) in B6D2F1 (BDF1) mice
Conditions: endpoint: median survival time, higher = longer survival
Outline: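 Values are ratios of treated (T) to vehicle-control (C) measurements of survival or tumor size in tumor-bearing mice.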

`COc1cc(NS(C)(=O)=O)ccc1Nc1c2ccccc2nc2ccccc12` was tested, and the T/C (dose: 0.1 mg/kg/injection, schedule: Q01DX009 (ip), vehicle: saline) was 102 % of control, the T/C (dose: 0.2 mg/kg/injection, schedule: Q01DX009 (ip), vehicle: saline) was 118 % of control and the T/C (dose: 0.25 mg/kg/injection, schedule: Q01DX009 (ip), vehicle: other) was 119 % of control. The T/C (dose: 0.5 mg/kg/injection, schedule: Q01DX009 (ip), vehicle: Klucel (hydroxypropylcellulose) (HPC)) was 183 % of control, the T/C (dose: 0.5 mg/kg/injection, schedule: Q01DX009 (ip), vehicle: lactic acid) was 150 % of control and the T/C (dose: 0.5 mg/kg/injection, schedule: Q01DX009 (ip), vehicle: other) was 120 % of control. The T/C (dose: 0.5 mg/kg/injection, schedule: Q03HX024 (oral), vehicle: lactic acid) was 100 % of control, the T/C (dose: 0.75 mg/kg/injection, schedule: Q01DX009 (ip), vehicle: other) was 113 % of control and the T/C (dose: 0.8 mg/kg/injection, schedule: Q01DX005 (iv), vehicle: lactic acid) was 100 % of control. For the same compound, the T/C (dose: 0.8 mg/kg/injection, schedule: Q01DX009 (ip), vehicle: Klucel (hydroxypropylcellulose) (HPC)) was 180 % of control, the T/C (dose: 0.8 mg/kg/injection, schedule: Q01DX009 (ip), vehicle: saline) was 177 % of control and the T/C (dose: 0.8 mg/kg/injection, schedule: Q04DX003 (iv), vehicle: lactic acid) was 102 % of control. For the same compound, the T/C (dose: 1.0 mg/kg/injection, schedule: Q01DX009 (ip), vehicle: Klucel (hydroxypropylcellulose) (HPC)) was 160 % of control and 166 % of control and 189 % of control, the T/C (dose: 1.0 mg/kg/injection, schedule: Q01DX009 (ip), vehicle: clinical formulation) was 183 % of control and the T/C (dose: 1.0 mg/kg/injection, schedule: Q01DX009 (ip), vehicle: lactic acid) was 202 % of control. The T/C (dose: 1.0 mg/kg/injection, schedule: Q01DX009 (oral), vehicle: lactic acid) was 96 % of control, the T/C (dose: 1.0 mg/kg/injection, schedule: Q01DX009 (oral), vehicle: other) was 106 % of control and 109 % of control and the T/C (dose: 1.0 mg/kg/injection, schedule: Q03HX024 (oral), vehicle: lactic acid) was 97 % of control. For the same compound, the T/C (dose: 1.0 mg/kg/injection, schedule: Q04DX003 (ip), vehicle: other) was 118 % of control, the T/C (dose: 1.25 mg/kg/injection, schedule: Q01DX009 (ip), vehicle: saline) was 177 % of control and the T/C (dose: 1.5 mg/kg/injection, schedule: Q01DX009 (ip), vehicle: other) was 114 % of control. For the same compound, the T/C (dose: 1.6 mg/kg/injection, schedule: Q01DX005 (iv), vehicle: lactic acid) was 110 % of control, the T/C (dose: 1.6 mg/kg/injection, schedule: Q04DX003 (iv), vehicle: lactic acid) was 92 % of control and the T/C (dose: 2.0 mg/kg/injection, schedule: Q01DX009 (ip), vehicle: Klucel (hydroxypropylcellulose) (HPC)) was 184 % of control. For the same compound, the T/C (dose: 2.0 mg/kg/injection, schedule: Q01DX009 (ip), vehicle: clinical formulation) was 212 % of control, the T/C (dose: 2.0 mg/kg/injection, schedule: Q01DX009 (ip), vehicle: lactic acid) was 218 % of control and the T/C (dose: 2.0 mg/kg/injection, schedule: Q01DX009 (ip), vehicle: other) was 158 % of control. For the same compound, the T/C (dose: 2.0 mg/kg/injection, schedule: Q01DX009 (oral), vehicle: lactic acid) was 98 % of control, the T/C (dose: 2.0 mg/kg/injection, schedule: Q01DX009 (oral), vehicle: other) was 105 % of control and 109 % of control and the T/C (dose: 2.0 mg/kg/injection, schedule: Q03HX016 (oral), vehicle: lactic acid) was 101 % of control. The T/C (dose: 2.0 mg/kg/injection, schedule: Q03HX024 (oral), vehicle: lactic acid) was 101 % of control, the T/C (dose: 2.0 mg/kg/injection, schedule: Q04DX003 (oral), vehicle: lactic acid) was 105 % of control and the T/C (dose: 2.0 mg/kg/injection, schedule: Q04DX003 (oral), vehicle: other) was 105 % of control and 96 % of control. The T/C (dose: 3.0 mg/kg/injection, schedule: Q01DX009 (ip), vehicle: Klucel (hydroxypropylcellulose) (HPC)) was 250 % of control, the T/C (dose: 3.12 mg/kg/injection, schedule: Q01DX009 (ip), vehicle: saline) was 113 % of control and the T/C (dose: 3.3 mg/kg/injection, schedule: Q01DX005 (iv), vehicle: lactic acid) was 155 % of control. The T/C (dose: 3.3 mg/kg/injection, schedule: Q04DX003 (iv), vehicle: lactic acid) was 105 % of control, the T/C (dose: 3.75 mg/kg/injection, schedule: Q04DX003 (ip), vehicle: clinical formulation) was 173 % of control and the T/C (dose: 4.0 mg/kg/injection, schedule: Q01DX009 (oral), vehicle: lactic acid) was 105 % of control. For the same compound, the T/C (dose: 4.0 mg/kg/injection, schedule: Q01DX009 (oral), vehicle: other) was 100 % of control and 96 % of control, the T/C (dose: 4.0 mg/kg/injection, schedule: Q04DX003 (oral), vehicle: lactic acid) was 110 % of control and the T/C (dose: 4.0 mg/kg/injection, schedule: Q04DX003 (oral), vehicle: other) was 97 % of control and 105 % of control and 103 % of control. For the same compound, the T/C (dose: 5.0 mg/kg/injection, schedule: Q01DX009 (ip), vehicle: Klucel (hydroxypropylcellulose) (HPC)) was 223 % of control, the T/C (dose: 6.0 mg/kg/injection, schedule: Q01DX009 (ip), vehicle: other) was 72 % of control and the T/C (dose: 6.25 mg/kg/injection, schedule: Q01DX009 (ip), vehicle: saline) was 124 % of control. For the same compound, the T/C (dose: 6.5 mg/kg/injection, schedule: Q01DX005 (iv), vehicle: lactic acid) was 112 % of control, the T/C (dose: 6.5 mg/kg/injection, schedule: Q04DX003 (iv), vehicle: lactic acid) was 107 % of control and the T/C (dose: 7.5 mg/kg/injection, schedule: Q04DX003 (ip), vehicle: clinical formulation) was 193 % of control. For the same compound, the T/C (dose: 8.0 mg/kg/injection, schedule: Q01DX001 (ip), vehicle: lactic acid) was 151 % of control, the T/C (dose: 8.0 mg/kg/injection, schedule: Q01DX001 (oral), vehicle: lactic acid) was 110 % of control and the T/C (dose: 8.0 mg/kg/injection, schedule: Q01DX009 (oral), vehicle: other) was 105 % of control and 103 % of control. For the same compound, the T/C (dose: 8.0 mg/kg/injection, schedule: Q04DX003 (ip), vehicle: other) was 188 % of control, the T/C (dose: 8.0 mg/kg/injection, schedule: Q04DX003 (oral), vehicle: lactic acid) was 111 % of control and the T/C (dose: 8.0 mg/kg/injection, schedule: Q04DX003 (oral), vehicle: other) was 105 % of control [middle of 4 runs]. For the same compound, the T/C (dose: 8.0 mg/kg/injection, schedule: Q08DX002 (oral), vehicle: lactic acid) was 107 % of control, the T/C (dose: 12.5 mg/kg/injection, schedule: Q01DX009 (ip), vehicle: saline) was 163 % of control and the T/C (dose: 12.5 mg/kg/injection, schedule: Q04DX003 (ip), vehicle: Klucel (hydroxypropylcellulose) (HPC)) was 166 % of control. For the same compound, the T/C (dose: 13.0 mg/kg/injection, schedule: Q04DX003 (iv), vehicle: lactic acid) was 120 % of control, the T/C (dose: 15.0 mg/kg/injection, schedule: Q04DX003 (ip), vehicle: clinical formulation) was 173 % of control and the T/C (dose: 16.0 mg/kg/injection, schedule: Q01DX001 (oral), vehicle: lactic acid) was 110 % of control. For the same compound, the T/C (dose: 16.0 mg/kg/injection, schedule: Q04DX003 (ip), vehicle: other) was 152 % of control, the T/C (dose: 16.0 mg/kg/injection, schedule: Q04DX003 (oral), vehicle: other) was 97 % of control and 113 % of control and 110 % of control and the T/C (dose: 16.0 mg/kg/injection, schedule: Q08DX002 (oral), vehicle: lactic acid) was 108 % of control. The T/C (dose: 25.0 mg/kg/injection, schedule: Q01DX001 (ip), vehicle: saline sonified) was 166 % of control, the T/C (dose: 25.0 mg/kg/injection, schedule: Q01DX001 (ip), vehicle: saline) was 160 % of control and the T/C (dose: 25.0 mg/kg/injection, schedule: Q04DX003 (ip), vehicle: Klucel (hydroxypropylcellulose) (HPC)) was 285 % of control. For the same compound, the T/C (dose: 26.0 mg/kg/injection, schedule: Q04DX003 (iv), vehicle: lactic acid) was 120 % of control, the T/C (dose: 32.0 mg/kg/injection, schedule: Q01DX001 (oral), vehicle: lactic acid) was 116 % of control and the T/C (dose: 32.0 mg/kg/injection, schedule: Q04DX003 (oral), vehicle: other) was 121 % of control [middle of 4 runs]. The T/C (dose: 32.0 mg/kg/injection, schedule: Q08DX002 (oral), vehicle: lactic acid) was 115 % of control, the T/C (dose: 50.0 mg/kg/injection, schedule: Q01DX001 (ip), vehicle: saline sonified) was 102 % of control and the T/C (dose: 64.0 mg/kg/injection, schedule: Q04DX003 (oral), vehicle: other) was 110 % of control. For the same compound, the T/C (dose: 100.0 mg/kg/injection, schedule: Q01DX001 (ip), vehicle: saline sonified) was 169 % of control.
`COc1cc2c(cc1OC)/C(=N/N)CCC2` was tested, and the T/C (dose: 6.25 mg/kg/injection, schedule: Q01DX009 (ip), vehicle: water) was 99 % of control, the T/C (dose: 12.5 mg/kg/injection, schedule: Q01DX009 (ip), vehicle: water) was 92 % of control and the T/C (dose: 25.0 mg/kg/injection, schedule: Q01DX009 (ip), vehicle: water) was 93 % of control. For the same compound, the T/C (dose: 50.0 mg/kg/injection, schedule: Q01DX009 (ip), vehicle: water) was 97 % of control.
In the case of `CS(=O)(=O)OCc1c(O)c2c(c(O)c1COS(C)(=O)=O)C(=O)C=CC2=O`, the T/C (dose: 6.25 mg/kg/injection, schedule: Q01DX009 (ip), vehicle: Klucel (hydroxypropylcellulose) (HPC)) is reported as 111 % of control, the T/C (dose: 12.5 mg/kg/injection, schedule: Q01DX009 (ip), vehicle: Klucel (hydroxypropylcellulose) (HPC)) is reported as 106 % of control and the T/C (dose: 25.0 mg/kg/injection, schedule: Q01DX009 (ip), vehicle: Klucel (hydroxypropylcellulose) (HPC)) is reported as 102 % of control. The T/C (dose: 50.0 mg/kg/injection, schedule: Q01DX009 (ip), vehicle: Klucel (hydroxypropylcellulose) (HPC)) was 97 % of control.
